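Five compound concentrations were applied to cells in 96-well plates for 48 hours; endpoints were derived by simple linear interpolation of the resulting dose-response curve. GI50: concentration for 50% inhibition of growth.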 Activity calls are given as the source filed them. No stated cut-off is given here; in the data, active = GI50 up to about 1.1 µM and inactive = higher.
Experiments:
Assay in all cases: NCI anticancer screen, dose series, 48 h
[1] = test system: CCRF-CEM
[2] = test system: Hs-578T
[3] = test system: HL-60
[4] = test system: SF-268
[5] = test system: SR
[6] = test system: LOX IMVI
[7] = test system: NCI-H226
[8] = test system: TK-10
[9] = test system: EKVX
[10] = test system: RPMI-8226
[11] = test system: SF-295
[12] = test system: UACC-62
[13] = test system: OVCAR-4
[14] = test system: CAKI-1
[15] = test system: HT-29
[16] = test system: SN12C
[17] = test system: UO-31
[18] = test system: MCF7
[19] = test system: HCC 2998
[20] = test system: T47D

Measured: GI50

C=C(C)CNCC(=C)C.Oc1c(Cl)c(Cl)c(Cl)c(Cl)c1Cl
inactive: [1] 26.4 µM | [2] 35.6 µM | [3] 3.15 µM | [4] 33.9 µM | [5] 26.6 µM | [6] 22.3 µM | [7] 13.9 µM | [8] > 100 µM | [9] 17.9 µM | [10] 20.8 µM | [11] 16.5 µM | [12] 18.7 µM | [13] 23.5 µM | [14] 21.4 µM | [15] 20.1 µM | [16] 20.2 µM | [17] 15.7 µM | [18] 26.6 µM | [19] > 100 µM | [20] 18.2 µM

COc1cc2c(cc1OC)-c1cc3cc(OC)c(OC)cc3c(=O)n1CC2
inactive: [1] 3.21 µM | [2] 6 µM | [3] 17.7 µM | [4] 26.5 µM | [5] 2.07 µM | [6] 13.2 µM | [7] 8.75 µM | [8] 8.07 µM | [9] 28.8 µM | [10] 3.16 µM | [11] 11.5 µM | [12] 5.35 µM | [13] 30.3 µM | [14] 4.93 µM | [15] 28.6 µM | [16] 14.6 µM | [17] 2.43 µM | [18] 5.89 µM | [19] 30.7 µM | [20] 2.58 µM

Cc1ccc(C(=O)/C=C2\Nc3ccccc3NC2=O)cc1
inactive: [1] 99.1 µM | [2] 2.21 µM | [3] > 100 µM | [4] 5.96 µM | [5] 15.5 µM | [6] 7.94 µM | [7] 1.65 µM | [8] 2.1 µM | [9] 2.96 µM | [10] 11.1 µM | [11] 4.17 µM | [12] 2.26 µM | [13] 1.79 µM | [14] 2.44 µM | [15] 20 µM | [16] 5.58 µM | [17] 4.38 µM | [18] 9.98 µM | [19] 11.5 µM | [20] 2.65 µM

Sc1cnnc2ccc(Br)cc12
inactive: [1] 36.9 µM | [2] 57.3 µM | [3] 36.8 µM | [4] 58.7 µM | [5] 52 µM | [6] 46 µM | [7] 49.3 µM | [8] 38.6 µM | [9] 22.5 µM | [10] 69 µM | [11] 34 µM | [12] 32.3 µM | [13] 35.9 µM | [14] 73.1 µM | [15] 26.4 µM | [16] 69.5 µM | [17] 34.9 µM | [18] 34.7 µM | [19] 34.6 µM | [20] 51.9 µM

CC(C)C1CSC2N1C(=O)C2(OCc1ccccc1)C1CC1 (stereo not given)
inactive: [1] > 100 µM | [2] > 100 µM | [3] 73.6 µM | [4] > 100 µM | [5] > 100 µM | [6] > 100 µM | [7] > 100 µM | [8] > 100 µM | [9] > 100 µM | [10] 89.1 µM | [11] > 100 µM | [12] > 100 µM | [13] > 100 µM | [14] > 100 µM | [15] > 100 µM | [16] > 100 µM | [17] > 100 µM | [18] > 100 µM | [19] > 100 µM | [20] 97.5 µM

CC(=O)Oc1cccc2c1C(=O)C(Br)(Br)CCC2
inactive: [1] 1.34 µM | [2] 7.38 µM | [3] 2.38 µM | [4] 8.34 µM | [5] 1.77 µM | [6] 2.17 µM | [7] 6.68 µM | [8] 16.9 µM | [9] 11 µM | [10] 2.22 µM | [11] 17.5 µM | [12] 7.76 µM | [13] 1.83 µM | [14] 6.62 µM | [15] 5.55 µM | [16] 5.86 µM | [17] 9.46 µM | [18] 2.29 µM | [19] 15.3 µM | [20] 2.53 µM

CCc1n[nH]c(=O)n1-c1ccncc1
inactive: [1] > 100 µM | [2] > 100 µM | [3] > 100 µM | [4] > 100 µM | [5] > 100 µM | [6] > 100 µM | [7] > 100 µM | [8] > 100 µM | [9] > 100 µM | [10] > 100 µM | [11] > 100 µM | [13] > 100 µM | [14] > 100 µM | [15] > 100 µM | [16] > 100 µM | [17] > 100 µM | [18] > 100 µM | [19] > 100 µM | [20] > 100 µM

N=C(N)c1ccc(/N=N\c2c(O)ccc3c2[nH]c2ccccc23)cc1
active: [1] 0.25 µM
inactive: [2] 63.8 µM | [3] 1.15 µM | [4] 19.5 µM | [5] 2.54 µM | [6] 2.24 µM | [7] 40.5 µM | [8] 45.5 µM | [9] > 59.6 µM | [10] 2.19 µM | [11] > 51.5 µM | [12] 54.2 µM | [13] 6.14 µM | [14] > 50.8 µM | [15] 19.6 µM | [16] 16.4 µM | [17] 35.3 µM | [18] 1.75 µM | [19] 1.76 µM | [20] 2.43 µM

O/N=C1\CCc2cc3c(cc21)CCC3
inactive: [1] > 100 µM | [2] 34.9 µM | [3] 67.5 µM | [4] 97.9 µM | [5] > 100 µM | [6] > 100 µM | [7] > 100 µM | [8] > 100 µM | [9] 5.65 µM | [10] > 100 µM | [11] > 100 µM | [12] > 100 µM | [13] > 100 µM | [14] > 100 µM | [15] > 100 µM | [16] > 100 µM | [17] > 100 µM | [18] > 100 µM | [19] > 100 µM | [20] 86.3 µM

Cc1ccc(O)c(C2=NNC(c3cccc(Br)c3)C2)c1 (stereo not given)
inactive: [1] 29.3 µM | [2] 37.3 µM | [3] 53.3 µM | [4] 71 µM | [5] 27.8 µM | [6] 38.3 µM | [7] 71.6 µM | [8] > 100 µM | [9] 35.9 µM | [10] 21.9 µM | [11] 61 µM | [12] 35.7 µM | [14] 27.9 µM | [15] 64.1 µM | [16] 52.6 µM | [17] 51.5 µM | [18] 33.8 µM | [19] 60.8 µM | [20] 35.6 µM

COC(=O)/C(C#N)=C(\Nc1ccccc1)N1CCCC1
inactive: [2] > 100 µM | [3] > 100 µM | [4] > 100 µM | [5] > 100 µM | [6] > 100 µM | [7] > 100 µM | [8] > 100 µM | [9] > 100 µM | [10] > 100 µM | [11] > 100 µM | [13] > 100 µM | [14] > 100 µM | [15] > 100 µM | [16] > 100 µM | [17] > 100 µM | [18] > 100 µM | [19] > 100 µM | [20] > 100 µM

Cc1cc(C)c2c(=O)n(CC(O)CN(Cc3ccccc3)CC(O)Cn3sc4nc(C)cc(C)c4c3=O)sc2n1 (stereo not given)
inactive: [1] 6.05 µM | [2] 18.9 µM | [3] 33.2 µM | [4] 17.1 µM | [5] 8.99 µM | [6] 19.2 µM | [7] 18.5 µM | [8] 17.4 µM | [9] 22.2 µM | [10] 3.61 µM | [11] 22.1 µM | [12] 16.9 µM | [13] 18.1 µM | [14] 18.8 µM | [15] 19.6 µM | [16] 18.1 µM | [17] 17 µM | [18] 17.6 µM | [19] 18.8 µM | [20] 18.2 µM

O=C1C(Cl)C(c2cc3cc(Br)ccc3nc2Cl)N1c1ccc(F)c(Cl)c1 (stereo not given)
inactive: [2] 20.1 µM | [3] 2.47 µM | [4] 2.99 µM | [7] 6.7 µM | [8] 6.32 µM | [9] 1.42 µM | [10] 1.36 µM | [11] 7.14 µM | [12] 9.12 µM | [13] 1.76 µM | [15] 10.7 µM | [16] 7.73 µM | [18] 5.96 µM | [19] 11.7 µM | [20] 8.09 µM
active: [1] 0.418 µM | [5] 1.03 µM | [6] 0.055 µM | [14] 0.857 µM | [17] 0.118 µM

C=CCN(c1cc(OC)c2[nH]cc(C)c2c1[N+](=O)[O-])S(C)(=O)=O
inactive: [1] > 100 µM | [2] > 100 µM | [3] > 100 µM | [4] > 100 µM | [5] > 100 µM | [6] > 100 µM | [7] > 100 µM | [8] > 100 µM | [9] > 100 µM | [10] > 100 µM | [11] > 100 µM | [12] > 100 µM | [13] > 100 µM | [14] 2.55 µM | [16] > 100 µM | [17] > 100 µM | [18] > 100 µM | [19] > 100 µM | [20] > 100 µM

Reference: ChEMBL document CHEMBL1201862, “PubChem BioAssay data set” (2004)
